The text below walks through data of PubChem BioAssay AID1259407 (Chemical Carcinogenesis Research Information System (CCRIS), 2018).

Active and inactive are the calls of the source. No rule for the calls is given here.

The data set deals with CCRIS mutagenicity, Ames/micronucleus/aberration tests. Nature of the data set: CCRIS mutagenicity studies.
[1] abbreviates: Test System: Mouse lymphoma, Strain/Indicator: L5178Y (tk+/tk-), Metabolic Activation: None, Method: Suspension/plate.
Setting [2] is: Test System: Mouse lymphoma, Strain/Indicator: L5178Y (tk+/tk-), Metabolic Activation: Rat, Liver, S-9, Aroclor 1254, Method: Suspension/plate.
[3] abbreviates: Test System: AMES SALMONELLA TYPHIMURIUM, Strain/Indicator: TA100, Metabolic Activation: NONE, Method: STANDARD PLATE.
The mark [4] stands for this setting: Test System: AMES SALMONELLA TYPHIMURIUM, Strain/Indicator: TA98, Metabolic Activation: NONE, Method: STANDARD PLATE.
The mark [5] stands for this setting: Test System: AMES SALMONELLA TYPHIMURIUM, Strain/Indicator: TA1535, Metabolic Activation: NONE, Method: STANDARD PLATE.
[6] abbreviates: Test System: AMES SALMONELLA TYPHIMURIUM, Strain/Indicator: TA1537, Metabolic Activation: NONE, Method: STANDARD PLATE.
The mark [7] stands for this setting: Test System: AMES SALMONELLA TYPHIMURIUM, Strain/Indicator: TA1538, Metabolic Activation: NONE, Method: STANDARD PLATE.

Turning to `CC[C@@]1(O)C[C@H](O[C@H]2C[C@H](N(C)C)[C@H](O[C@H]3C[C@H](O)[C@H](O[C@@H]4O[C@@H](C)C(=O)C=C4N)[C@H](C)O3)[C@H](C)O2)c2c(cc3c(c2O)C(=O)c2c(O)ccc(O)c2C3=O)[C@H]1C(=O)OC`, the mutagenic call was “active; positive” (Test System: AMES SALMONELLA TYPHIMURIUM, Strain/Indicator: TA98, Metabolic Activation: NONE) and “active; positive” (Test System: AMES SALMONELLA TYPHIMURIUM, Strain/Indicator: TA98, Metabolic Activation: RAT, LIVER, S-9, AROCLOR 1254).

With `CCOc1ccccc1C(N)=O`, the mutagenic call reads like this: (End Point: IN VITRO CHROMOSOMAL ABERRATIONS, Test System: CHL/IU CELLS, Metabolic Activation: NONE) “active; positive (structural changes)”; (End Point: IN VITRO MICRONUCLEUS, Test System: CHL/IU CELLS, Metabolic Activation: NONE) “active; positive”.

For `COc1ccc2c(c1)-c1nn(CCCN(C)C)c3ccc([N+](=O)[O-])c(c13)N2`, the mutagenic call is, setting by setting: under setting [1], “active; positive”; under setting [2], “active; positive”.

In the case of `O=[N+]([O-])c1cc([N+](=O)[O-])c2ccccc2c1`, the mutagenic call (Test System: AMES SALMONELLA TYPHIMURIUM, Strain/Indicator: TA98, Metabolic Activation: HAMSTER, LIVER, S-9, AROCLOR 1254 (30%), Method: PREINCUBATION) is “active; positive”; the mutagenic call (Test System: AMES SALMONELLA TYPHIMURIUM, Strain/Indicator: TA98, Metabolic Activation: NONE, Method: PREINCUBATION) is “active; positive”; the mutagenic call (Test System: AMES SALMONELLA TYPHIMURIUM, Strain/Indicator: TA98, Metabolic Activation: RAT, LIVER, S-9, AROCLOR 1254 (30%), Method: PREINCUBATION) was “active; positive”; the mutagenic call (Test System: AMES SALMONELLA TYPHIMURIUM, Strain/Indicator: TA100, Metabolic Activation: HAMSTER, LIVER, S-9, AROCLOR 1254 (30%), Method: PREINCUBATION) is “active; positive”; the mutagenic call (Test System: AMES SALMONELLA TYPHIMURIUM, Strain/Indicator: TA100, Metabolic Activation: NONE, Method: PREINCUBATION) was “active; positive”; the mutagenic call (Test System: AMES SALMONELLA TYPHIMURIUM, Strain/Indicator: TA100, Metabolic Activation: RAT, LIVER, S-9, AROCLOR 1254 (30%), Method: PREINCUBATION) is “active; positive”.

As for `[O]=[U](=[O])=[O]`, the mutagenic call (Test System: Human bronchial epithelial (BEP2D) cells, Metabolic Activation: None, Method: Morphological transformation) is “active; positive. depleted uranium transformed cell lines exhibited significant chromoso”.

`COS(=O)(=O)c1ccc(C)cc1`: the mutagenic call by setting is: (End Point: IN VITRO MICRONUCLEUS, Test System: MOUSE LYMPHOMA L5178Y CELLS, Metabolic Activation: NONE) “active; positive”; (End Point: IN VITRO MICRONUCLEUS, Test System: MOUSE LYMPHOMA L5178Y CELLS, Metabolic Activation: RAT, LIVER, S-9) “active; positive”; (End Point: In vitro micronucleus, Test System: Chinese Hamster Ovary (CHO-WBL) cells, Metabolic Activation: None) “active; positive (p<0.01)”; under setting [3], “active; positive”; (Test System: AMES SALMONELLA TYPHIMURIUM, Strain/Indicator: TA100, Metabolic Activation: RAT, LIVER, S-9, Method: STANDARD PLATE) “active; positive”.

As to `O=C(C(=O)c1ccccc1)c1ccccc1`, the mutagenic call reads like this: (Test System: AMES SALMONELLA TYPHIMURIUM, Strain/Indicator: TA98, Metabolic Activation: HAMSTER, LIVER, S-9, AROCLOR 1254, Method: STANDARD PLATE) “inactive; negative”; under setting [4], “inactive; negative”; (Test System: AMES SALMONELLA TYPHIMURIUM, Strain/Indicator: TA98, Metabolic Activation: RAT, LIVER, S-9, AROCLOR 1254, Method: STANDARD PLATE) “inactive; negative”; (Test System: AMES SALMONELLA TYPHIMURIUM, Strain/Indicator: TA100, Metabolic Activation: HAMSTER, LIVER, S-9, AROCLOR 1254, Method: STANDARD PLATE) “inactive; negative”; under setting [3], “inactive; negative”; (Test System: AMES SALMONELLA TYPHIMURIUM, Strain/Indicator: TA100, Metabolic Activation: RAT, LIVER, S-9, AROCLOR 1254, Method: STANDARD PLATE) “inactive; negative”. Besides, the mutagenic call runs as follows: (Test System: AMES SALMONELLA TYPHIMURIUM, Strain/Indicator: TA1535, Metabolic Activation: HAMSTER, LIVER, S-9, AROCLOR 1254, Method: STANDARD PLATE) “inactive; negative”; under setting [5], “inactive; negative”; (Test System: AMES SALMONELLA TYPHIMURIUM, Strain/Indicator: TA1535, Metabolic Activation: RAT, LIVER, S-9, AROCLOR 1254, Method: STANDARD PLATE) “inactive; negative”; (Test System: AMES SALMONELLA TYPHIMURIUM, Strain/Indicator: TA1537, Metabolic Activation: HAMSTER, LIVER, S-9, AROCLOR 1254, Method: STANDARD PLATE) “inactive; negative”; under setting [6], “inactive; negative”; (Test System: AMES SALMONELLA TYPHIMURIUM, Strain/Indicator: TA1537, Metabolic Activation: RAT, LIVER, S-9, AROCLOR 1254, Method: STANDARD PLATE) “inactive; negative”. The mutagenic call is “inactive; negative” (Test System: AMES SALMONELLA TYPHIMURIUM, Strain/Indicator: TA1538, Metabolic Activation: HAMSTER, LIVER, S-9, AROCLOR 1254, Method: STANDARD PLATE); “inactive; negative” under setting [7]; “inactive; negative” (Test System: AMES SALMONELLA TYPHIMURIUM, Strain/Indicator: TA1538, Metabolic Activation: RAT, LIVER, S-9, AROCLOR 1254, Method: STANDARD PLATE); “inactive; inconclusive (previous evaluation negative)” under setting [1]; “inactive; negative” under setting [2].

On to `O=C1c2ccc3nc(-c4ccccc4)sc3c2C(=O)c2ccc3nc(-c4ccccc4)sc3c21`, for which the mutagenic call reads like this: (Test System: AMES SALMONELLA TYPHIMURIUM, Strain/Indicator: TA98, Metabolic Activation: HAMSTER, LIVER, S-9, AROCLOR 1254 (10%), Method: STANDARD PLATE) “inactive; negative”; under setting [4], “inactive; negative”; (Test System: AMES SALMONELLA TYPHIMURIUM, Strain/Indicator: TA98, Metabolic Activation: RAT, LIVER, S-9, AROCLOR 1254 (10%), Method: STANDARD PLATE) “inactive; negative”; (Test System: AMES SALMONELLA TYPHIMURIUM, Strain/Indicator: TA100, Metabolic Activation: HAMSTER, LIVER, S-9, AROCLOR 1254 (10%), Method: STANDARD PLATE) “inactive; negative”; under setting [3], “inactive; negative”; (Test System: AMES SALMONELLA TYPHIMURIUM, Strain/Indicator: TA100, Metabolic Activation: RAT, LIVER, S-9, AROCLOR 1254 (10%), Method: STANDARD PLATE) “inactive; negative”. For the same compound, the mutagenic call by setting is: (Test System: AMES SALMONELLA TYPHIMURIUM, Strain/Indicator: TA1535, Metabolic Activation: HAMSTER, LIVER, S-9, AROCLOR 1254 (10%), Method: STANDARD PLATE) “inactive; negative”; under setting [5], “inactive; negative”; (Test System: AMES SALMONELLA TYPHIMURIUM, Strain/Indicator: TA1535, Metabolic Activation: RAT, LIVER, S-9, AROCLOR 1254 (10%), Method: STANDARD PLATE) “inactive; negative”; (Test System: AMES SALMONELLA TYPHIMURIUM, Strain/Indicator: TA1537, Metabolic Activation: HAMSTER, LIVER, S-9, AROCLOR 1254 (10%), Method: STANDARD PLATE) “inactive; negative”; under setting [6], “inactive; negative”; (Test System: AMES SALMONELLA TYPHIMURIUM, Strain/Indicator: TA1537, Metabolic Activation: RAT, LIVER, S-9, AROCLOR 1254 (10%), Method: STANDARD PLATE) “inactive; negative”. The mutagenic call runs as follows: (Test System: AMES SALMONELLA TYPHIMURIUM, Strain/Indicator: TA1538, Metabolic Activation: HAMSTER, LIVER, S-9, AROCLOR 1254 (10%), Method: STANDARD PLATE) “inactive; negative”; under setting [7], “inactive; negative”; (Test System: AMES SALMONELLA TYPHIMURIUM, Strain/Indicator: TA1538, Metabolic Activation: RAT, LIVER, S-9, AROCLOR 1254 (10%), Method: STANDARD PLATE) “inactive; negative”; (Test System: MOUSE LYMPHOMA, Strain/Indicator: L5178Y (TK+/TK-), Metabolic Activation: NONE, Method: SUSPENSION/PLATE) “inactive; negative”; (Test System: MOUSE LYMPHOMA, Strain/Indicator: L5178Y (TK+/TK-), Metabolic Activation: RAT, LIVER, S-9, AROCLOR 1254, Method: SUSPENSION/PLATE) “active; positive”.
